Experimental data: patent publication US8653024B2, “Use of AMPs for treatment of UTI/cystitis” (Adenium Biotech Aps, priority 2009, dated 2014)
Several values for one entry are separate records, joined by “and”; a condition that tells them apart may be missing. Equal values may be shown once. Entries after “also recorded” stand apart in the source; their conditions may differ.

What was measured:
Escherichia coli DSA 443 [1] = assay: Murine urinary tract infection (UTI) model, Example 1: colony counts in urine, bladder and kidney; type: in vivo; conditions: for Mean colony counts + SEM, bladder day 3 / Mean colony counts + SEM, kidney day 3 / Mean colony counts + SEM, urine day 1 / Mean colony counts + SEM, urine day 2 / Mean colony counts + SEM, urine day 3: female OF-1 mice; for Mean colony counts + SEM, urine day 1: day 1 post infection, before first treatment; for Mean colony counts + SEM, urine day 2: day 2 post infection; for Bacterial reduction in the urine compared to vehicle treatment: p<0.001
Escherichia coli DSA 443 [2] = assay: Murine urinary tract infection model, Example 2 (carried out as described in Example 1); type: in vivo; conditions: for Mean colony counts ± SEM, bladder day 3 / Mean colony counts ± SEM, kidney day 3 / Mean colony counts ± SEM, urine day 1 / Mean colony counts ± SEM, urine day 3: mice; for Mean colony counts ± SEM, bladder day 3 / Mean colony counts ± SEM, kidney day 3 / Mean colony counts ± SEM, urine day 3: day 3 post infection; for Mean colony counts ± SEM, urine day 1: day 1 post infection, before first treatment; for Bacterial reduction in the kidneys compared to vehicle treatment / Bacterial reduction in the urine compared to vehicle treatment / Bacterial reduction in the bladder compared to vehicle treatment: 10 mg/kg i.v. BID; for Bacterial reduction in the kidneys compared to vehicle treatment: p<0.05; for Effect of treatment compared to Meropenem: 10 mg/kg vs 40 mg/kg Meropenem; for Bacterial reduction in the urine compared to vehicle treatment / Bacterial reduction in the bladder compared to vehicle treatment: after 2 days of treatment; for Bacterial reduction in the urine compared to vehicle treatment: p<0.001; for Bacterial reduction in the bladder compared to vehicle treatment: p<0.01
Method: The efficacy of Arenicin administered BID i.v. days 1 and 2 post infection at a rate of 10 ml/kg to female OF-1 mice (14/group), at a dosage of 10 mg/kg, was assessed against E. coli DSA 443. Treatment with 40 mg/kg Meropenem was included as a positive control and treatment with vehicle was included as a negative control.
Starting on day −4 before inoculation, mice were given drinking water containing 5% glucose. On day 0, the bladder of each mouse was emptied of urine, and each mouse was inoculated with 50 microliters bacteria suspension (E. coli DSA 443 9.3 log10 CFU/ml) via a catheter in the urethra into the bladder.
Urine was sampled from all mice at 24 hours post infection, before the first treatment, and colony counts were determined. 48 and 72 hours post infection, urine was sampled from all mice and kept at room temperature until analyzed. CFU was determined in urine samples within 2-3 hours after sampling. On day 3, mice were sacrificed by cervical dislocation and the bladders and kidneys were collected and stored at −80° C. until analyses. Frozen organs were thawed and homogenized with steel beads on a tissue lyser. All samples, urine, kidney and bladder, were 10 fold diluted in saline and 20 microliter spots were applied on blue agar plates in duplicates. Also undiluted urine (100 microliters if possible) was spread on a separate agar plate to determine the colony counts lowest possible detection level (10 CFU/ml). All agar plates were incubated 18-22 hrs at 35° C. in ambient air.
The CFU numbers are log10 transformed before performing calculations to obtain a normal (or closer to normal) distribution. The data are presented below in Table 1 as mean±SEM. Significance levels were calculated with one-way ANOVA, Dunnett's multiple comparison test and are indicated by the stars in the figures.
The experiment was carried out as described in Example 1.
The efficacies of Variant1 and Variant2 (10 mg/kg) (formulated in Ringer acetate pH 6) were investigated following intravenous (i.v.) administration BID day 1 and day 2 post infection with Escherichia coli DSA 443 (clinical isolate, SSI) in a murine Urinary Tract Infection model. Treatment with 40 mg/kg Meropenem was included as a positive control group.

[3] = 10 mg/kg i.v. BID day 1 and day 2

Compound: C[C@@H](O)[C@H]1C(=O)N2C(C(=O)O)=C(S[C@@H]3CN[C@H](C(=O)N(C)C)C3)[C@H](C)[C@H]12 [Meropenem, reference compound]
- Bacterial loads in the kidneys compared to vehicle (Escherichia coli DSA 443 [1]; 40 mg/kg, day 3 post infection): slightly, but not significantly, reduced
- Mean colony counts + SEM, bladder day 3 (Escherichia coli DSA 443 [1]; bladder, day 3 post infection, 40 mg/kg (positive control)): 3.9 ± 0.3 log10 CFU
- Mean colony counts + SEM, kidney day 3 (Escherichia coli DSA 443 [1]; day 3 post infection, 40 mg/kg (positive control)): 1.8 ± 0.3 log10 CFU
- Mean colony counts + SEM, urine day 1 (Escherichia coli DSA 443 [1]; urine, 40 mg/kg group (positive control)): 7.0 ± 0.4 log10 CFU
- Mean colony counts + SEM, urine day 2 (Escherichia coli DSA 443 [1]; urine, 40 mg/kg (positive control)): 2.7 ± 0.3 log10 CFU
- Mean colony counts + SEM, urine day 3 (Escherichia coli DSA 443 [1]; urine, day 3 post infection, 40 mg/kg (positive control)): 2.1 ± 0.3 log10 CFU
- Mean colony counts ± SEM, bladder day 3 (Escherichia coli DSA 443 [2]; 40 mg/kg (positive control)): 3.9 ± 0.2 log10 CFU
- Mean colony counts ± SEM, kidney day 3 (Escherichia coli DSA 443 [2]; 40 mg/kg (positive control)): 1.8 ± 0.4 log10 CFU
- Mean colony counts ± SEM, urine day 1 (Escherichia coli DSA 443 [2]; 40 mg/kg group (positive control)): 6.3 ± 1.0 log10 CFU
- Mean colony counts ± SEM, urine day 3 (Escherichia coli DSA 443 [2]; 40 mg/kg (positive control)): 1.8 ± 0.4 log10 CFU

Compound: Arenicin: antimicrobial polypeptide having the amino acid sequence shown in SEQ ID NO: 1 (GFCWYVCVYRNGVRVCYRRCN; mat_peptide (1)..(21); listed as Arenicola marina)
- Effect (CFU reduction) compared to Meropenem (Escherichia coli DSA 443 [1]; 10 mg/kg vs 40 mg/kg Meropenem, urine, bladder): comparable to that of Meropenem; also recorded: comparable to the effect of the Meropenem
- Bacterial reduction in the urine compared to vehicle treatment (Escherichia coli DSA 443 [1]; after 1 day of treatment, 10 mg/kg i.v. BID): significant bacterial reduction
- Bacterial reduction in the urine compared to vehicle treatment (Escherichia coli DSA 443 [1]; after 2 days of treatment, 10 mg/kg i.v. BID, 10 mg/kg): significantly (p<0.001) reduced the bacterial loads; also recorded: significant bacterial reduction
- Bacterial reduction in the bladder compared to vehicle treatment (Escherichia coli DSA 443 [1]; after 2 days of treatment, 10 mg/kg i.v. BID, p<0.01, 10 mg/kg): Significant lower (p<0.01) CFU levels; also recorded: significant bacterial reduction
- Bacterial reduction in the kidneys compared to vehicle treatment (Escherichia coli DSA 443 [1]; day 3 post infection, 10 mg/kg i.v. BID, 10 mg/kg): not significantly lower than the vehicle group; also recorded: slight reduction
- Mean colony counts + SEM, bladder day 3 (Escherichia coli DSA 443 [1]; bladder, day 3 post infection, 10 mg/kg i.v. BID days 1 and 2, 10 mg/kg): 3.8±0.2 log10 CFU
- Mean colony counts + SEM, kidney day 3 (Escherichia coli DSA 443 [1]; day 3 post infection, 10 mg/kg i.v. BID days 1 and 2, 10 mg/kg): 1.9±0.3 log10 CFU
- Mean colony counts + SEM, urine day 1 (Escherichia coli DSA 443 [1]; urine, 10 mg/kg group, 10 mg/kg): 6.9±0.3 log10 CFU
- Mean colony counts + SEM, urine day 2 (Escherichia coli DSA 443 [1]; urine, after one day of treatment, 10 mg/kg i.v. BID, 10 mg/kg): 3.2±0.5 log10 CFU
- Mean colony counts + SEM, urine day 3 (Escherichia coli DSA 443 [1]; urine, day 3 post infection, after completed treatment, 10 mg/kg i.v. BID days 1 and 2, 10 mg/kg): 2.3±0.3 log10 CFU and 2.3 ± 0.2 log10 CFU

Compound: Variant1: antimicrobial polypeptide of SEQ ID NO: 2; Y5N+Y17H substitution as compared to Arenicin (SEQ ID NO: 1) (GFCWNVCVYRNGVRVCHRRCN)
- Bacterial reduction in the kidneys compared to vehicle treatment (Escherichia coli DSA 443 [2]): significant bacterial reduction
- Effect of treatment compared to Meropenem (Escherichia coli DSA 443 [2]): comparable to the effect of treatment with Meropenem
- Bacterial reduction in the urine compared to vehicle treatment (Escherichia coli DSA 443 [2]): significant bacterial reduction
- Bacterial reduction in the bladder compared to vehicle treatment (Escherichia coli DSA 443 [2]): significant bacterial reduction
- Mean colony counts ± SEM, bladder day 3 (Escherichia coli DSA 443 [2]; [3]): 3.8 ± 0.4 log10 CFU
- Mean colony counts ± SEM, kidney day 3 (Escherichia coli DSA 443 [2]; [3]): 1.3 ± 0.2 log10 CFU
- Mean colony counts ± SEM, urine day 1 (Escherichia coli DSA 443 [2]; 10 mg/kg group): 7.1 ± 0.8 log10 CFU
- Mean colony counts ± SEM, urine day 3 (Escherichia coli DSA 443 [2]; [3]): 2.6 ± 0.4 log10 CFU

Compound: Variant2: antimicrobial polypeptide of SEQ ID NO: 3; W4G+Y5H substitution as compared to Arenicin (GFCGHVCVYRNGVRVCYRRCN)
- Bacterial reduction in the kidneys compared to vehicle treatment (Escherichia coli DSA 443 [2]): significant bacterial reduction
- Effect of treatment compared to Meropenem (Escherichia coli DSA 443 [2]): comparable to the effect of treatment with Meropenem
- Bacterial reduction in the urine compared to vehicle treatment (Escherichia coli DSA 443 [2]): significant bacterial reduction
- Bacterial reduction in the bladder compared to vehicle treatment (Escherichia coli DSA 443 [2]): significant bacterial reduction
- Mean colony counts ± SEM, bladder day 3 (Escherichia coli DSA 443 [2]; [3]): 3.7 ± 0.5 log10 CFU
- Mean colony counts ± SEM, kidney day 3 (Escherichia coli DSA 443 [2]; [3]): 1.5 ± 0.4 log10 CFU
- Mean colony counts ± SEM, urine day 1 (Escherichia coli DSA 443 [2]; 10 mg/kg group): 5.7 ± 1.0 log10 CFU
- Mean colony counts ± SEM, urine day 3 (Escherichia coli DSA 443 [2]; [3]): 3.2 ± 0.5 log10 CFU
